# Laboratory results published in US20250382344A1, “Soluble GLP1/GIP/NPY2 Receptor Triple Agonists” (Boehringer Ingelheim International GmH, priority 2024, published 2025).
# Where two headings read alike, the source gives them in different places. *1 amine or outer side, *2 acyl side, *3 side chain or, on linkers, in order; H or OH if unused. Where a SMILES comes first, the peptide text is derived from it. Side-chain parts run from the residue outwards. [ ]: non-standard residue; d: D form. The star is where a group is joined. C18 diacid = O=C(O)CCCCCCCCCCCCCCCCC(=O)*; γGlu = O=C(O)[C@H](CCC(=O)[*:2])N[*:1]; εLys = N[C@@H](CCCCN[*:1])C(=O)[*:2]; Aib = CC(C)(N)C(=O)O
# Legend:
# hGLP1R = target: T1, hGLP1R (Homo sapiens, UniProt P43220); test: hGLP1R CreLuc assay in 0.5% and 100% plasma (HEK-293 CRE-luciferase reporter cells); format: cell-based; settings: HEK-293 reporter cells
# T1 construct: expressed in transfected cells; host or cells: HEK-293 CRE-luciferase reporter cells
# [1] = Solubility in 0.1 M phosphate buffer at pH 7; format: physicochemical; settings: 0.1 M phosphate buffer at pH 7, 10 mg/mL final peptide concentration, shaking 2 hours at room temperature, peptides as TFA-salts; measured sample pH 6.5-7.0
# hGIPR = target: T2, hGIPR (Homo sapiens, UniProt P48546); test: hGIPR CreLuc assay in 0.5% and 100% plasma (CHO CRE-luciferase reporter cells); format: cell-based
# T2 construct: expressed in transfected cells; host or cells: CHO CRE-luciferase reporter cells
# T2 sequence (P48546 22-466): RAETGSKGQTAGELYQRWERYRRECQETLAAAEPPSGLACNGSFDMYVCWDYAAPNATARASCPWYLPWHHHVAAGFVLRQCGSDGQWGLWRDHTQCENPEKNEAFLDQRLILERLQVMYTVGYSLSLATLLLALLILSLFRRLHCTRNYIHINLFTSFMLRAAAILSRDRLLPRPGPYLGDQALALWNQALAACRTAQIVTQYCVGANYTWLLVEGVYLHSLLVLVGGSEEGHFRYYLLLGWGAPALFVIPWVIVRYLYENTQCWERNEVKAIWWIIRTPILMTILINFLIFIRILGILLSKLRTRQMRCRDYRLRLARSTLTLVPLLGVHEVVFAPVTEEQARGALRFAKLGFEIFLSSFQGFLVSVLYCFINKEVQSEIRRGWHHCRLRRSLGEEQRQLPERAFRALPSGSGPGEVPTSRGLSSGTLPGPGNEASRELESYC
# [2] = 0.5% human plasma, read-out: hGLP1R 0.5% hP
# [3] = 0.5% human plasma, read-out: hGIPR 0.5% hP
# [4] = 100% human plasma, read-out: hGIPR 100% hP
# T1 sequence (P43220 24-463): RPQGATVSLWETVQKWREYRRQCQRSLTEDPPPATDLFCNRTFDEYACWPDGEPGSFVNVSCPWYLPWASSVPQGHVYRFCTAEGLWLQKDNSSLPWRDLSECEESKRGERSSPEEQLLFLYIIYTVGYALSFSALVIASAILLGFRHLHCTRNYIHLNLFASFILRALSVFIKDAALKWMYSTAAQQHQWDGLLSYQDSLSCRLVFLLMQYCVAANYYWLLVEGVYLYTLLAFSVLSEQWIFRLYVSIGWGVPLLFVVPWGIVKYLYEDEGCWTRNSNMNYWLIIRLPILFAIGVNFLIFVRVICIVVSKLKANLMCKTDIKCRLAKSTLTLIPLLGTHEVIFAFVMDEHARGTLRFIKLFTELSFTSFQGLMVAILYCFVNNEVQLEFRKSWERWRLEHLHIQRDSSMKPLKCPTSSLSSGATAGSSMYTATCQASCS
SMILES,EC50 (hGLP1R; [2]),solubility at 2 h [1],EC50 (hGIPR; [3]),EC50 (hGIPR; [4]),"EC50 (hGLP1R; 100% human plasma, read-out: hGLP1R 100% hP)"
"CC[C@H](C)[C@H](NC(=O)[C@H](CC(C)C)NC(=O)[C@H](Cc1c[nH]cn1)NC(=O)[C@H](CCCNC(=N)N)NC(=O)[C@@H](NC(=O)[C@H](Cc1ccccc1)NC(=O)[C@H](C)NC(=O)C(C)(C)NC(=O)[C@H](CCC(N)=O)NC(=O)[C@H](C)NC(=O)[C@H](CCC(N)=O)NC(=O)[C@H](CCCCN)NC(=O)[C@H](CCC(=O)O)NC(=O)[C@H](CC(C)C)NC(=O)[C@](C)(CC(C)C)NC(=O)[C@@H](NC(=O)[C@H](CO)NC(=O)[C@H](Cc1ccc(O)cc1)NC(=O)[C@H](CC(=O)O)NC(=O)[C@H](CO)NC(=O)[C@@H](NC(=O)[C@H](Cc1ccccc1)NC(=O)[C@@H](NC(=O)CNC(=O)[C@H](CCC(=O)O)NC(=O)C(C)(C)NC(=O)[C@@H](N)Cc1ccc(O)cc1)[C@@H](C)O)[C@@H](C)O)[C@@H](C)CC)C(C)C)C(=O)N[C@@H](CC(N)=O)C(=O)N[C@@H](CCCCNC(=O)CC[C@H](NC(=O)CC[C@H](NC(=O)CC[C@H](NC(=O)CC[C@H](NC(=O)CC[C@H](NC(=O)CC[C@H](NC(=O)CCCCCCCCCCCCCCCCCCC(=O)O)C(=O)O)C(=O)O)C(=O)O)C(=O)O)C(=O)O)C(=O)O)C(=O)NC(C)(C)C(=O)N[C@H](C(=O)N[C@@H](CCCNC(=N)N)C(=O)N[C@@H](CCC(N)=O)C(=O)N[C@@H](CCCNC(=N)N)C(=O)N[C@@H](Cc1ccc(O)cc1)C(N)=O)[C@@H](C)O [Compound 49, Y-Aib-E-G-T-F-T-S-D-Y-S-I-aMeL-L-E-K-Q-A-Q-Aib-A-F-V-R-H-L-I-N-K(1,3)-Aib-T-R-Q-R-Y-NH2.C20DA-gGlu-gGlu-gGlu-gGlu-gGlu-gGlu(1,2)]",0.3 nM,10000 µg/mL,0.1 nM,–,–
"CC[C@H](C)[C@H](NC(=O)[C@H](CC(C)C)NC(=O)[C@H](Cc1c[nH]cn1)NC(=O)[C@H](CCCNC(=N)N)NC(=O)[C@@H](NC(=O)[C@H](Cc1ccccc1)NC(=O)[C@H](C)NC(=O)C(C)(C)NC(=O)[C@H](CCC(N)=O)NC(=O)[C@H](C)NC(=O)[C@H](CCC(N)=O)NC(=O)[C@H](CCCCN)NC(=O)[C@H](CCC(=O)O)NC(=O)[C@H](CC(C)C)NC(=O)C(C)(C)NC(=O)[C@@H](NC(=O)[C@H](CO)NC(=O)[C@H](Cc1ccc(O)cc1)NC(=O)[C@H](CC(=O)O)NC(=O)[C@H](CO)NC(=O)[C@@H](NC(=O)[C@H](Cc1ccccc1)NC(=O)[C@@H](NC(=O)CNC(=O)[C@H](CCC(=O)O)NC(=O)C(C)(C)NC(=O)[C@@H](N)Cc1ccc(O)cc1)[C@@H](C)O)[C@@H](C)O)[C@@H](C)CC)C(C)C)C(=O)N[C@@H](C)C(=O)N[C@@H](CCCCNC(=O)[C@@H](N)CCCCNC(=O)CC[C@H](NC(=O)CC[C@H](NC(=O)CC[C@H](NC(=O)CC[C@H](NC(=O)CC[C@H](NC(=O)CC[C@H](NC(=O)CCCCCCCCCCCCCCCCC(=O)O)C(=O)O)C(=O)O)C(=O)O)C(=O)O)C(=O)O)C(=O)O)C(=O)NC(C)(C)C(=O)N[C@H](C(=O)N[C@@H](CCCNC(=N)N)C(=O)N[C@@H](CCC(N)=O)C(=O)N[C@@H](CCCNC(=N)N)C(=O)N[C@@H](Cc1ccc(O)cc1)C(N)=O)[C@@H](C)O [Compound 68, Y-Aib-E-G-T-F-T-S-D-Y-S-I-Aib-L-E-K-Q-A-Q-Aib-A-F-V-R-H-L-I-A-K(1,3)-Aib-T-R-Q-R-Y-NH2.C18DA-gGlu-gGlu-gGlu-gGlu-gGlu-gGlu-eLys(1,2)] (H-Y[Aib]EGTFTSDYSI[Aib]LEKQAQ[Aib]AFVRHLIAK([εLys-γGlu-γGlu-γGlu-γGlu-γGlu-γGlu-C18 diacid])[Aib]TRQRY-NH2; N-terminus assumed)",0.6 nM,4800 µg/mL,0.2 nM,–,–
"CC[C@H](C)[C@H](NC(=O)[C@H](CC(C)C)NC(=O)[C@H](Cc1c[nH]cn1)NC(=O)[C@H](CCCNC(=N)N)NC(=O)[C@@H](NC(=O)[C@H](Cc1ccccc1)NC(=O)[C@H](C)NC(=O)C(C)(C)NC(=O)[C@H](CCC(N)=O)NC(=O)[C@H](C)NC(=O)[C@H](CCC(N)=O)NC(=O)[C@H](CCCCN)NC(=O)[C@H](CCC(=O)O)NC(=O)[C@H](CC(C)C)NC(=O)C(C)(C)NC(=O)[C@@H](NC(=O)[C@H](CO)NC(=O)[C@H](Cc1ccc(O)cc1)NC(=O)[C@H](CC(=O)O)NC(=O)[C@H](CO)NC(=O)[C@@H](NC(=O)[C@H](Cc1ccccc1)NC(=O)[C@@H](NC(=O)CNC(=O)[C@H](CCC(=O)O)NC(=O)C(C)(C)NC(=O)[C@@H](N)Cc1ccc(O)cc1)[C@@H](C)O)[C@@H](C)O)[C@@H](C)CC)C(C)C)C(=O)N[C@@H](CC(N)=O)C(=O)N[C@@H](CCCCNC(=O)[C@@H](N)CCCCNC(=O)CC[C@H](NC(=O)CC[C@H](NC(=O)CC[C@H](NC(=O)CC[C@H](NC(=O)CC[C@H](NC(=O)CC[C@H](NC(=O)CCCCCCCCCCCCCCCCC(=O)O)C(=O)O)C(=O)O)C(=O)O)C(=O)O)C(=O)O)C(=O)O)C(=O)NC(C)(C)C(=O)N[C@H](C(=O)N[C@@H](CCCNC(=N)N)C(=O)N[C@@H](CCC(N)=O)C(=O)N[C@@H](CCCNC(=N)N)C(=O)N(C)[C@@H](Cc1ccc(O)cc1)C(N)=O)[C@@H](C)O [Compound 116, Y-Aib-E-G-T-F-T-S-D-Y-S-I-Aib-L-E-K-Q-A-Q-Aib-A-F-V-R-H-L-I-N-K(1,3)-Aib-T-R-Q-R-NMeY-NH2.C18DA-gGlu-gGlu-gGlu-gGlu-gGlu-gGlu-eLys(1,2)]",2 nM,4200 µg/mL,0.3 nM,3.4 nM,–
"CC[C@H](C)[C@H](NC(=O)[C@H](CC(C)C)NC(=O)[C@H](Cc1c[nH]cn1)NC(=O)[C@H](CCCNC(=N)N)NC(=O)[C@@H](NC(=O)[C@H](Cc1ccccc1)NC(=O)[C@H](C)NC(=O)C(C)(C)NC(=O)[C@H](CCC(N)=O)NC(=O)[C@H](C)NC(=O)[C@H](CCC(N)=O)NC(=O)[C@H](CCCCN)NC(=O)[C@H](CCC(=O)O)NC(=O)[C@H](CC(C)C)NC(=O)C(C)(C)NC(=O)[C@@H](NC(=O)[C@H](CO)NC(=O)[C@H](Cc1ccc(O)cc1)NC(=O)[C@H](CC(=O)O)NC(=O)[C@H](CO)NC(=O)[C@@H](NC(=O)[C@H](Cc1ccccc1)NC(=O)[C@@H](NC(=O)CNC(=O)[C@H](CCC(=O)O)NC(=O)C(C)(C)NC(=O)[C@@H](N)Cc1ccc(O)cc1)[C@@H](C)O)[C@@H](C)O)[C@@H](C)CC)C(C)C)C(=O)N[C@@H](CC(N)=O)C(=O)N[C@@H](CCCCNC(=O)[C@@H](N)CCCCNC(=O)CC[C@H](NC(=O)CC[C@H](NC(=O)CC[C@H](NC(=O)CC[C@H](NC(=O)CC[C@H](NC(=O)CC[C@H](NC(=O)CCCCCCCCCCCCCCCCC(=O)O)C(=O)O)C(=O)O)C(=O)O)C(=O)O)C(=O)O)C(=O)O)C(=O)NC(C)(C)C(=O)N[C@H](C(=O)N[C@@H](CCCNC(=N)N)C(=O)N[C@@H](CCC(N)=O)C(=O)N(C)[C@@H](CCCNC(=N)N)C(=O)N[C@@H](Cc1ccc(O)cc1)C(N)=O)[C@@H](C)O [Compound 43, Y-Aib-E-G-T-F-T-S-D-Y-S-I-Aib-L-E-K-Q-A-Q-Aib-A-F-V-R-H-L-I-N-K(1,3)-Aib-T-R-Q-NMeR-Y-NH2.C18DA-gGlu-gGlu-gGlu-gGlu-gGlu-gGlu-eLys(1,2)]",0.6 nM,4300 µg/mL,0.1 nM,2.8 nM,3 nM
"CC[C@H](C)[C@H](NC(=O)[C@H](CC(C)C)NC(=O)[C@H](Cc1c[nH]cn1)NC(=O)[C@H](CCCNC(=N)N)NC(=O)[C@@H](NC(=O)[C@H](Cc1ccccc1)NC(=O)[C@H](C)NC(=O)C(C)(C)NC(=O)[C@H](CCC(N)=O)NC(=O)[C@H](C)NC(=O)[C@H](CCC(N)=O)NC(=O)[C@H](CCCCN)NC(=O)[C@H](CCC(=O)O)NC(=O)[C@H](CC(C)C)NC(=O)C(C)(C)NC(=O)[C@@H](NC(=O)[C@H](CO)NC(=O)[C@H](Cc1ccc(O)cc1)NC(=O)[C@H](CC(=O)O)NC(=O)[C@H](CO)NC(=O)[C@@H](NC(=O)[C@H](Cc1ccccc1)NC(=O)[C@@H](NC(=O)CNC(=O)[C@H](CCC(=O)O)NC(=O)C(C)(C)NC(=O)[C@@H](N)Cc1ccc(O)cc1)[C@@H](C)O)[C@@H](C)O)[C@@H](C)CC)C(C)C)C(=O)N[C@@H](CC(N)=O)C(=O)N[C@@H](CCCCNC(=O)CC[C@H](NC(=O)CC[C@H](NC(=O)[C@@H](N)CCCCNC(=O)CC[C@H](NC(=O)CC[C@H](NC(=O)CC[C@H](NC(=O)CC[C@H](NC(=O)CCCCCCCCCCCCCCCCC(=O)O)C(=O)O)C(=O)O)C(=O)O)C(=O)O)C(=O)O)C(=O)O)C(=O)NC(C)(C)C(=O)N[C@H](C(=O)N[C@@H](CCCNC(=N)N)C(=O)N[C@@H](CCC(N)=O)C(=O)N[C@@H](CCCNC(=N)N)C(=O)N[C@@H](Cc1ccc(O)cc1)C(N)=O)[C@@H](C)O [Compound 34, Y-Aib-E-G-T-F-T-S-D-Y-S-I-Aib-L-E-K-Q-A-Q-Aib-A-F-V-R-H-L-I-N-K(1,3)-Aib-T-R-Q-R-Y-NH2.C18DA-gGlu-gGlu-gGlu-gGlu-eLys-gGlu-gGlu(1,2)]",0.3 nM,10600 µg/mL,0.2 nM,–,–
